Data published in the METLIN SMRT retention time set (Domingo-Almenara et al. 2019).

Test: gradient 5% acetonitrile 3 min, to 50% in 2 min, to 85% in 15 min, held 3 min, 100 µL/min
Settings: column: Zorbax Extend-C18 2.1 x 50 mm; eluents: water / acetonitrile, 0.1% formic acid
Summary of the method: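 Values are retention times taken from adduct peaks that software picked and an analyst inspected. The pure standards were run as mixtures of ~100 molecules on HPLC linked to a quadrupole time-of-flight mass spectrometer, in positive and negative ionization mode. A Zorbax Extend-C18 column (2.1 × 50 mm, 1.8 μm) was used at 100 μL/min with water and acetonitrile, each including 0.1% formic acid.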

SMILES | RP-LC retention time [s]
CCOC(=O)c1c(C)[nH]c(C)c1S(=O)(=O)N1CCC(C(=O)N2CCn3c2nc2ccccc23)CC1 | 725
CN(c1nc2ccccc2s1)C1CCN(C[C@H](O)COc2ccc(F)c(F)c2)CC1 | 777
COc1ccc(NC(=O)c2c(O)c3cccnc3n(-c3ccccc3)c2=O)cc1 | 1200
O=C(Cc1ccc(F)cc1)Nc1nnc(C2CC(=O)N(c3ccc(Cl)cc3)C2)o1 (centres undefined) | 789
O=C1COc2cc(Cl)ccc2N1Cc1nc(-c2ccccc2)no1 | 1060
CCOC(=O)c1cn2nc(SCc3ccccc3)nc2nc1C | 1000
O=C(CC1CCN(C(=O)C2CCCCC2)CC1)NCCCN1CCCC1 | 595
COc1ccc(C(=O)NC2CCN(c3cc(-c4cccs4)[nH]n3)C2)cc1OC (centres undefined) | 638
Cc1cccc(Nc2nc(CC(=O)NCc3ccccc3OC(F)(F)F)cs2)n1 | 708
COc1ccc(CN2CCN(c3cnn4c(C5CC5)nnc4c3)CC2)cc1 | 544
O=C(CC1CCOC2(CCN(Cc3ccco3)CC2)C1)NC1CC1 (centres undefined) | 573
CCCNC(=O)c1cc2sc(CC)cc2n1C | 951
O=C(Nc1cccc(F)c1)N1CCCC1c1nc(-c2ccccc2)no1 (centres undefined) | 964
Cc1ccc(C2Cn3nnc(-c4nc(-c5ccc(C(F)(F)F)cc5)no4)c3CO2)c(C)c1 (centres undefined) | 1300
O=C(NCC1CC1)c1cn(-c2ccc(S(=O)(=O)N3CCCC3)cn2)cn1 | 762
Cc1ccc(-c2nnc(N3CCC(C(=O)NCCN4CCCCC4C)CC3)o2)cc1 (centres undefined) | 624
O=C(Cc1cccs1)NCCn1ncc2c(=O)n(Cc3ccccc3F)cnc21 | 666
CCn1c(C2CCN(S(=O)(=O)c3ccc4c(c3)CCCC4)C2)nc2ccncc21 (centres undefined) | 585
CCN1c2ccc(C)cc2C(=O)NC12CCN(C(=O)c1ccc(OC)cc1OC)CC2 | 774

SMILES | RP-LC retention time [s]
CC(C)Oc1ccc(-c2noc(Cc3nnc(-c4ccccc4)o3)n2)cc1 | 1100
COCCN1C(=O)[C@H]2CN(Cc3ccc(F)c(F)c3)C[C@H]2C1=O | 623
COc1ccc(N2CC(c3nc(-c4ccc(Br)cc4)no3)CC2=O)cc1OC (centres undefined) | 977
CC(C)OC(=O)c1ncoc1-c1ccccc1C(=O)N1CCN(C2CCCCC2)CC1 | 638
COc1ccccc1NC(=O)Cn1c(C)nc2c(sc3nc(-c4ccccc4)ccc32)c1=O | 1090
CCOc1ccc(C(C)NC(=O)C2CCCN(c3cnc4nccnc4c3)C2)cc1 (centres undefined) | 712
Cc1nc2c(sc3cccc(F)c32)c(=O)n1CC(=O)Nc1ccccc1C(F)(F)F | 841
Cn1c(=O)c2c(nc3n(-c4ccccc4N)c(-c4ccc(Cl)cc4)cn23)n(C)c1=O | 883
Cc1ccc(C)c(N2CCN(c3ccnc(SCC(=O)Nc4ccccc4C)n3)CC2)c1 | 1010
COc1ccc(C(=O)NC2CCN(c3cc(-c4cccs4)[nH]n3)C2)c(C)c1 (centres undefined) | 712
CCOc1ccc(NS(=O)(=O)c2ccc3c(c2)C(=O)N(C)c2ncccc2O3)cc1 | 907
Cc1nnc(NC(=O)Cc2csc(SCC(=O)c3ccc(F)cc3)n2)s1 | 724
Cc1ccc(Cl)cc1NC(=O)N1CCCC1c1c(C)noc1C (centres undefined) | 853
Cc1ccc(S(=O)(=O)CC(=O)Nc2nc(-c3cccc([N+](=O)[O-])c3)cs2)cc1 | 993
CCOC(=O)c1cccc(N2C=C(C(=O)OC)S(=O)(=O)c3ccc(F)cc32)c1 | 908
CCC(C)NC(=O)Cn1ccc2ccc(-c3nnc(C)o3)cc21 (centres undefined) | 713
CCCCOC(=O)c1ccc(NC(=O)c2c(OC)cc(=O)n3c2CCCC3)cc1 | 857
O=C(Nc1ccc(F)cc1F)N1CCc2nc(-c3ccc(F)cc3)ncc2C1 | 932
Cc1nc(OCC(=O)Nc2ccc(F)c(Cl)c2)c2ccccc2n1 | 782

SMILES | RP-LC retention time [s]
Cc1oc(-c2[nH]ncc2C(=O)N2CCOCC2)cc1S(=O)(=O)N1CCN(C)CC1 | 553
c1ccc(-c2noc(N3CCN(c4ccccn4)CC3)n2)cc1 | 668
CCOC(=O)c1cnc2nc(C)ccc2c1Nc1cccc(Br)c1 | 756
O=C(Nc1nccs1)c1cc(-c2ccncc2)nc2ccccc12 | 614
COc1ccc(C(=O)Nc2nccnc2C(=O)NCc2ccc(Br)cc2)cc1 | 1010
Cc1nn(CC(=O)O)c(=O)c2nc(-c3ccccc3)sc12 | 701
Cc1ccc(CNC(=O)c2ccc3c(c2)CNCCO3)cc1 | 617
Cc1cc(C)cc(NC(=O)NCCc2cn(CC(C)C)c3ncccc23)c1 | 905
O=C(NCC1CCN(C(=O)Nc2ccc(F)cc2)CC1)Oc1ccccc1 | 772
Cc1ccc(-n2nc(N3CCN(C(=O)Nc4ccccc4)CC3)ccc2=O)cc1 | 780
CCn1ccc(C(=O)N2CCN(c3nc(CN4CCC(C)CC4)cs3)CC2)n1 | 613
O=C(CCCN1CCC2(CC1)C(=O)N(Cc1cccc(F)c1)CN2c1ccccc1)c1ccc(F)cc1 | 981
O=c1c2ccccc2n(Cc2nc(-c3ccc(F)cc3)no2)c(=O)n1Cc1ccco1 | 1050
Cc1ccc(C)c(NC(=O)C2CCc3nc(N4CCOCC4)ncc3C2)c1 (centres undefined) | 753
CN1C(=O)CCS(=O)(=O)C1c1ccc(Cl)cc1 (centres undefined) | 759
CCOC(=O)C1CCCN(C(=O)Cn2c3ccccc3c3cnn(C)c(=O)c32)C1 (centres undefined) | 826
O=C(Cc1ccccc1Cl)Nc1cc(N2CCOCC2)ncn1 | 635
COc1ccc(-c2nc(-c3ccc4oc(C)nc4c3)no2)cc1 | 1090

More lines, now with the values ahead:

RP-LC retention time [s] | SMILES
977 | COC(=O)C1=CN(C2CC2)c2cc(N3CCc4ccccc4C3)c(F)cc2S1(=O)=O
864 | CN(C)c1nc2ncn3c(=O)n(CC(=O)NC4CCc5ccccc54)nc3c2s1 (centres undefined)
642 | COCCNC(=O)C1c2cc(OC)c(OC)cc2C(=O)N(C)C1c1ccc(OC)c(OC)c1 (centres undefined)
644 | CCNC(=O)c1nc(-c2ccnc(N3CCOCC3)c2)no1
887 | O=C(Cn1cnc2c(sc3nc(-c4ccccc4)ccc32)c1=O)NCc1ccco1
869 | CCCCN(CC)S(=O)(=O)c1cc(-c2nnc(C)o2)co1
648 | COCc1nc(C2CCN(C(=O)c3ccco3)C2)no1 (centres undefined)
860 | O=c1c(=O)n(-c2ccc(Cl)cc2)ccn1Cc1nc(-c2ccccc2)no1
594 | Cc1ccc(NC(=O)C2CC(=O)N(c3n[nH]c4ccccc34)C2)nc1 (centres undefined)
635 | COc1cc(C(=O)N2CCN(c3cc(C)c4ccccc4n3)CC2)cc(OC)c1OC
786 | Cc1cc(S(=O)(=O)N2C[C@@H](F)C[C@H]2C(=O)N2CCCCC2)ccc1F
610 | O=C(Cn1ccc2ccccc21)Nc1ccccc1OC(F)(F)F
901 | Cc1noc(/C=C/c2ccc(S(=O)(=O)N3CCCCC3)s2)c1NC(=O)C1CC1
839 | O=C(NCC1CCCCC1)C1CCCN(c2nnc3ccc(Cl)cn23)C1 (centres undefined)
715 | Cc1ccc(S(=O)(=O)N2CCC(N3CC(F)(F)C[C@H]3CN(C)C)CC2)c(C)c1
900 | CC(C)n1c(=O)sc2cc(S(=O)(=O)N3CCC(C(=O)N4CCCCC4)CC3)ccc21
978 | Cn1cc2c3c(cccc31)CN(C(=O)Nc1ccccc1C(F)(F)F)CC2

RP-LC retention time [s] | SMILES
878 | CCCn1cc(C(=O)NCC(C)C)c2nn(-c3ccccc3)c(=O)c-2c1
672 | O=C(NC1CCN(c2cc(-c3cccs3)[nH]n2)C1)c1cccc2[nH]ccc12 (centres undefined)
720 | O=C(Nc1ccc(OCc2nnc(-c3ccc(F)cc3)o2)cc1)c1cccnc1
832 | COc1cc2nc(C(=O)N3CCCCC3)cc(Nc3ccc(C(C)C)cc3)c2cc1OC
692 | COc1ccc(C(=O)N2CCC3(CC2)NC(=O)c2ccc(Cl)cc2N3)cc1OC
647 | COCCNC(=O)Nc1nnc(-c2ccccc2Cl)o1
896 | Cc1ccccc1CNC(=O)C1CCCN(C(=O)c2[nH]c(C)c(C(=O)OC(C)C)c2C)C1 (centres undefined)
698 | CCOc1ccc(NC(=O)c2oc3ccccc3c2C)c2cccnc12
602 | CCC1CN2C=NC(N3CCN(C(=O)c4nn(CC)cc4Cl)CC3)=CC2=N1 (centres undefined)
1000 | COc1cccc(Cn2c(C(=O)N3CCC(C(=O)NC4CCCCC4)CC3)cc3ccsc32)c1
611 | CCCN1CCN(c2ccc(NC(=O)C(C)(C)C)c(C(=O)O)c2)CC1
955 | CCCOC(=O)c1cccc(Nc2nc(C(=O)OCC)nc3ccccc23)c1
840 | CCN1C(=O)COc2ccc(-c3csc(NC(=O)c4ccco4)n3)cc21
659 | COCC1CN(C)CC12CCN(S(=O)(=O)c1ccc(F)c(C)c1)CC2 (centres undefined)
745 | CCCC1(CO)CCCN1C(=O)c1ccc2[nH]ccc2c1 (centres undefined)
685 | COc1cccc(NC(=O)N(C)CC2CCOCC2)c1
